{"source": "patent US6245917A", "about": "“Crystalline sodium phenytoin monohydrate” (Warner-Lambert Company, priority 1999, dated 2001)", "assay_type_in_all_cases": "physicochemical", "key": {"[1]": {"test": "Weight change under controlled humidity conditions, first study (SPM made by the toluene slurry)", "source_text": "Study of weight change under controlled humidity conditions, samples were placed in open vials, which were placed in closed controlled-humidity jars. Relative humidities were controlled using saturated aqueous salt solutions: 58% RH, NaBr; 75% RH, (NH4)2 SO4; 76%, sodium acetate; 84% RH, KBr. Water uptake/loss characteristics of SPM and SPA were compared. Samples were kept at ambient temperature under various relative humidities (RHs) and were periodically weighed. […] The fact that SPM loses significant mass under even high humidity conditions is inconsistent with the loss of only water."}, "[2]": {"test": "Intrinsic dissolution in 90% ethanol/10% water", "conditions": "for concentration, average: average of runs", "description": "Dissolutions were carried out in a standard Van-Kel dissolution bath. The medium was either water, 90% water/10% ethanol, or 95% water/5% ethanol. For nonintrinsic dissolution experiments, SPM and SPA powders were sieved and fractions that passed through a 75 μm sieve were used. For intrinsic dissolution experiments, tablets were prepared in a standard Woods apparatus by compression of 400 mg of material at 3000 psig for 1 minute.\nEach experiment was carried out by placing 900 mL of medium into one of the Van-Kel dissolution vessels and allowing it to equilibrate at 37° C. The test materials were added (powder or tablet) and samples were withdrawn by syringe at the specified times (see Table 4). Each sample was filtered through a 0.2μ nylon syringe filter. Three dissolution experiments were carried out for each lot of suspension.\nFor intrinsic dissolution experiments, the test material is compressed into a tablet and the tablet (still in the die) is lowered into the dissolution medium. In this way, a consistent surface area, the tablet face, is presented to the medium. […] Therefore, tablets of SPM and SPA were prepared, removed from the die, crushed into powders, and examined by XRPD.\nIntrinsic dissolution experiments were then carried out in 90% ethanol/10% water. The tablets dissolved very quickly in this medium, resulting in rapid deformation of the tablet faces. Occasionally pieces of solid broke free of the tablets and sank to the bottom of the dissolution vessel. Within 15-40 minutes the tablets had dissolved completely. Because of this behavior, consistent surface areas were not maintained during the course of the experiments. The result was a high degree of imprecision in the concentrations measured (Table 6).\nSamples were analyzed by high-performance liquid chromatography (HPLC) on a BAS 480 HPLC system equipped with a UV/VIS detector and a TSP AS 100 autosampler, and controlled with INJECT software. A Phenomenex Hypersil C18 BDS column (5μ particle size, 4.6×150 mm) was used. The mobile phase was prepared by mixing water, methanol, and acetic acid in a 60:40:0.5 volume ratio. Analyses were carried out at a flow rate of 1 mL/minute with the UV/VIS detector set at 254 nm. The injection volume was 5 μL.\nA standard solution consisting of 74.8 μg/mL of sodium phenytoin in mobile phase was injected three times before and three times after each series of analyses. Each unknown sample was injected three times without dilution. The peak areas at 254 nm were recorded and averaged for each time point. The amount of sodium phenytoin in solution at each time point was calculated from the line equation of the calibration curve: […]"}, "[3]": {"test": "DSC and TGA thermal analyses", "description": "Differential scanning calorimetry (DSC) experiments were performed on a Dupont DSC 2000 and thermogravimetric analyses (TGA) were performed on a Dupont TGA 2000. Nitrogen was used as the purge gas and heating rates were 10° C./minute. Standards were run prior to sample analyses; Sn for DSC and calcium oxalate for TGA.\nBoth SPM and SPA were analyzed by x-ray powder diffraction (XRPD), infrared (IR) spectroscopy, solid-state nuclear magnetic resonance (SSNMR) spectroscopy, differential scanning calorimetry (DSC) and thermogravimetric analysis (TGA). The XRPD patterns of SPM and SPA are quite different and distinguishable. While the IR and SSNMR spectra of SPM and SPA are different, the differences are subtle. SPM and SPA behave quite differently on both DSC and TGA thermal analyses. SPA undergoes endothermic transitions at 364° C. and 409° C. that are accompanied by a weight loss of 72%."}, "[4]": {"conditions": "all humidities utilized, ambient temperature"}}, "data": [{"smiles": "O=C1NC(=O)C(c2ccccc2)(c2ccccc2)N1", "note": "[SPM, sodium phenytoin monohydrate]", "values": [{"measurement": "Percent change based on average of final two weights", "setting": "[1]; 58% RH, monohydrate", "result": -10, "unit": "%"}, {"measurement": "Percent change based on average of final two weights", "setting": "[1]; 75% RH, monohydrate", "result": -10, "unit": "%"}, {"measurement": "Percent change based on average of final two weights", "setting": "[1]; 84% RH, monohydrate", "result": -9, "unit": "%"}, {"measurement": "weight lost on reaching constant weight", "setting": "[1]; [4]", "result": 10, "unit": "%"}, {"measurement": "concentration, average", "setting": "[2]; 1 min, monohydrate", "result": 3300, "unit": "ng/mL"}, {"measurement": "concentration, Run 1", "setting": "[2]; 1 min, monohydrate", "result": 2420, "unit": "ng/mL"}, {"measurement": "concentration, Run 2", "setting": "[2]; 1 min, monohydrate", "result": 2210, "unit": "ng/mL"}, {"measurement": "concentration, Run 3", "setting": "[2]; 1 min, monohydrate", "result": 5260, "unit": "ng/mL"}, {"measurement": "time to complete dissolution of tablets", "setting": "[2]; 90% ethanol/10% water", "result": "15 to 40", "unit": "min"}, {"measurement": "dissolution rate relative to SPA", "setting": "[2]; 90% ethanol/10% water, high degree of imprecision", "result": "dissolves more rapidly than does SPA"}, {"measurement": "concentration, average", "setting": "[2]; 5 min, monohydrate", "result": 39460, "unit": "ng/mL"}, {"measurement": "concentration, Run 1", "setting": "[2]; 5 min, monohydrate", "result": 44780, "unit": "ng/mL"}, {"measurement": "concentration, Run 2", "setting": "[2]; 5 min, monohydrate", "result": 25240, "unit": "ng/mL"}, {"measurement": "concentration, Run 3", "setting": "[2]; 5 min, monohydrate", "result": 48380, "unit": "ng/mL"}, {"measurement": "concentration, average", "setting": "[2]; 10 min, monohydrate", "result": 92380, "unit": "ng/mL"}, {"measurement": "concentration, Run 1", "setting": "[2]; 10 min, monohydrate", "result": 99180, "unit": "ng/mL"}, {"measurement": "concentration, Run 2", "setting": "[2]; 10 min, monohydrate", "result": 70050, "unit": "ng/mL"}, {"measurement": "concentration, Run 3", "setting": "[2]; 10 min, monohydrate", "result": 107910, "unit": "ng/mL"}, {"measurement": "concentration, Run 2", "setting": "[2]; 15 min", "result": 120280, "unit": "ng/mL"}, {"measurement": "concentration, Run 3", "setting": "[2]; 15 min", "result": 153220, "unit": "ng/mL"}, {"measurement": "concentration, average", "setting": "[2]; 15 min", "result": 136750, "unit": "ng/mL"}, {"measurement": "concentration, average", "setting": "[2]; 20 min, monohydrate", "result": 166110, "unit": "ng/mL"}, {"measurement": "concentration, Run 1", "setting": "[2]; 20 min, monohydrate", "result": 166110, "unit": "ng/mL"}, {"measurement": "endothermic transition temperature", "setting": "[3]; DSC, nitrogen, 10° C./minute, monohydrate", "result": "about 65 °C"}, {"measurement": "weight loss accompanying the low-temperature endothermic transition", "setting": "[3]; TGA, transition at about 65° C.", "result": 5, "unit": "%"}]}, {"smiles": "O=C1NC(=O)C(c2ccccc2)(c2ccccc2)N1", "note": "[SPA, sodium phenytoin anhydrate, reference compound]", "values": [{"measurement": "Percent change based on average of final two weights", "setting": "[1]; 58% RH", "result": "+24%"}, {"measurement": "Percent change based on average of final two weights", "setting": "[1]; 75% RH", "result": "+25%"}, {"measurement": "Percent change based on average of final two weights", "setting": "[1]; 84% RH", "result": "+25%"}, {"measurement": "weight gained on reaching constant weight", "setting": "[1]; [4]", "result": 25, "unit": "%"}, {"measurement": "concentration, Run 1", "setting": "[2]; 1 min", "result": 1730, "unit": "ng/mL"}, {"measurement": "concentration, Run 2", "setting": "[2]; 1 min", "result": 1680, "unit": "ng/mL"}, {"measurement": "concentration, Run 3", "setting": "[2]; 1 min", "result": 3360, "unit": "ng/mL"}, {"measurement": "concentration, average", "setting": "[2]; 1 min", "result": 2260, "unit": "ng/mL"}, {"measurement": "concentration, Run 1", "setting": "[2]; 5 min", "result": 11710, "unit": "ng/mL"}, {"measurement": "concentration, Run 2", "setting": "[2]; 5 min", "result": 12240, "unit": "ng/mL"}, {"measurement": "concentration, Run 3", "setting": "[2]; 5 min", "result": 19910, "unit": "ng/mL"}, {"measurement": "concentration, average", "setting": "[2]; 5 min", "result": 14620, "unit": "ng/mL"}, {"measurement": "concentration, Run 1", "setting": "[2]; 10 min", "result": 23270, "unit": "ng/mL"}, {"measurement": "concentration, Run 2", "setting": "[2]; 10 min", "result": 23840, "unit": "ng/mL"}, {"measurement": "concentration, Run 3", "setting": "[2]; 10 min", "result": 57430, "unit": "ng/mL"}, {"measurement": "concentration, average", "setting": "[2]; 10 min", "result": 34840, "unit": "ng/mL"}, {"measurement": "concentration, Run 1", "setting": "[2]; 20 min", "result": 47050, "unit": "ng/mL"}, {"measurement": "concentration, Run 2", "setting": "[2]; 20 min", "result": 60830, "unit": "ng/mL"}, {"measurement": "concentration, Run 3", "setting": "[2]; 20 min", "result": 144620, "unit": "ng/mL"}, {"measurement": "concentration, average", "setting": "[2]; 20 min", "result": 87170, "unit": "ng/mL"}, {"measurement": "concentration, Run 1", "setting": "[2]; 40 min", "result": 112230, "unit": "ng/mL"}, {"measurement": "concentration, Run 2", "setting": "[2]; 40 min", "result": 139740, "unit": "ng/mL"}, {"measurement": "concentration, Run 3", "setting": "[2]; 40 min", "result": 193120, "unit": "ng/mL"}, {"measurement": "concentration, average", "setting": "[2]; 40 min", "result": 148360, "unit": "ng/mL"}, {"measurement": "weight loss accompanying the endothermic transitions", "setting": "[3]; TGA, transitions at 364° C. and 409° C.", "result": 72, "unit": "%"}]}]}
